Each structure is given as a SMILES string. Where a SMILES comes first, the peptide text is derived from it.

What is called logP is a log measure of how a compound divides between an organic and an aqueous phase. With `O=C1CN=C(c2ccccc2)c2ccc(C(F)(F)F)cc2N1`, the log partition coefficient (logP) stood at 3.18.
The same measure for `NC(=O)c1cccc(Cn2ccnc2)c1`: -0.01; for `C[N+](C)([O-])CCc1ccccc1`: -0.28.
The value for `CCCN(CCC)C1CCc2c(O)cccc2C1C` (centres undefined) was 4.06; that for `CNC1CCc2c(OC)cccc2C1C` (centres undefined) was 2.42; that for `CC(C)N(CCC(C(N)=O)c1ccccc1Cl)C(C)C` (centres undefined) was 2.83.
The same measure for `CC(C)(C)c1ccc(C(CCN2CCCCC2)c2ccccc2)cc1` (centres undefined): 6.83; for `O=S(NC(=S)N1CCCCC1)c1cnccc1NC1CCCCC1` (centres undefined): 3.75; for `CCCCC(=O)NCCCCCN(O)C(=O)CCC(=O)NCCCCCN(O)C(=O)CCC(=O)NCCCCCN(O)C(C)=O`: 0.88.
As to `O=c1nc2[nH]nc(-c3ccccc3)cc-2c(=O)[nH]1`, the logP turned out to be 1.56.
Molecule `COc1ccc(C2Cc3cc(C(F)(F)F)ccc3N(CCN(C)C)C(=O)C2CC(C)=O)cc1` (centres undefined) registered a logP of 4.7.
The same measure for `Nc1nc(NC2CC2)c2ncn([C@@H]3C=C[C@@H](CO)C3)c2n1`: 1.22; for `Cc1nc2c3c(c(C(=O)N(C)C)cn2c1C)CCC(c1ccccc1)O3` (centres undefined): 3.3.
The molecule `COc1ccc(CCN(C)CCCC(C#N)(c2cc(OC)c(OC)c(OC)c2)C(C)C)cc1OC` (centres undefined) came in with a log partition coefficient (logP) of 3.71.
The value for `CCCc1c(O)c(=O)cc(C)n1C` was 0.4; that for `CC(C)CNc1ccncc1S(=O)(=O)NC(=NC#N)NC(C)C` was 0.88.
For the molecule `CC(N)C(=O)NCC(=O)NC(Cc1ccccc1)C(=O)NC(C(=O)NC(Cc1ccccc1)C(=O)O)C(C)C` (centres undefined) (H-AGFVF-OH; configuration not given here), the logP was -1.1.
The value for `CC(=O)Oc1ccccc1C(=O)OC1Cc2c(O)cc(O)cc2OC1c1ccc(O)c(O)c1` (centres undefined) was 2.87; that for `COC(=O)C(C)NP(=O)(OCC1C=CC(n2cc(C)c(=O)[nH]c2=O)O1)Oc1ccc(OC(F)(F)F)cc1` (centres undefined) was 1.86.
The same measure for `C[N+](C)([O-])CCCc1ccccc1`: -0.04; for `CC(=O)C(Cc1ccccc1)=C(C)O`: 1.89; for `CCOC(=O)c1c(O)c2ccc(Cl)cc2[nH]c1=O`: 2.6.
The value for `CN(C)C(c1ccccc1)c1ccccc1` was 3.37.
`CCCc1nc(NCC)nc(N2CCCCC2)n1` yielded a logP of 3.34.
The same measure for `COC(=O)c1c(Oc2nc(OC)cc(OC)n2)cccc1C(C)=NOCC=C(Cl)Cl`: 4.23; for `Cc1ccc(O)cc1N`: 1.16; for `NC(Cc1ccccc1)C(=O)NC(Cc1c[nH]c2ccccc12)C(=O)O` (centres undefined): -0.79.
`CSCCC(NC(=O)C(N)CC(C)C)C(=O)O` (stereo not drawn) (H-Leu-Met-OH; configuration not given here) had a logP of -1.87.
`CCC(=O)Nc1ccc2cc3ccc(N)c(CO)c3nc2c1` came in with a logP of 1.55.
`Cc1coc2c(C)c3oc(=O)cc(C)c3cc12`: the logP came to 3.25.
The same measure for `CCc1cccc(C)c1NC(=O)OC`: 1.99; for `COc1ccc(C2Cc3c(cccc3C(F)(F)F)N(CCN(C)C)C(=O)C2Cc2ccccc2)cc1` (centres undefined): 7.2; for `CCCCCC(O)C=CC1C(O)CC(O)C1CC=CCCCC(=O)OC` (centres undefined): 3.07.
The value for `COc1ccc(CCNCC(O)COc2ccc(-c3nc(C)c[nH]3)cc2Br)cc1OC` (centres undefined) was 3.8; that for `O=C1NC(c2ccccc2)(c2ccccc2)C(=O)N1CO` was 2.23.
The same measure for `Cc1oc2ccc3c(C)cc(=O)[nH]c3c2c1C`: 3.18; for `Brc1cc2ccc3cccc4ccc(c1)c2c34`: 5.8; for `O=C(OC1Cc2c(O)cc(O)cc2OC1c1ccc(O)c(O)c1)c1ccc(O)c(O)c1` (centres undefined): 2.45.
Molecule `O=C1N=C(N2CCOCC2)CN1Cc1cccc(Cl)c1` came in with a log partition coefficient (logP) of 1.3.
`C=CC(=O)OCC(COC(=O)C=C)(COC(=O)C=C)COC(=O)C=C` came in with a logP of 2.11.
In the case of `CCC1C(=O)N(CCN(C)C)c2cccc(C(F)(F)F)c2CC1c1ccc(OC)cc1` (centres undefined), the log partition coefficient (logP) was 6.3.
The value for `CC(CO)N(C)C` (centres undefined) was 0.16; that for `CC1(C)N(O)C(c2ccc([N+](=O)[O-])cc2)=[N+]([O-])C1(C)C` was 1.68; that for `CN1CCN2c3ccccc3Cc3ccccc3C2C1` (centres undefined) was 4.24.
The value for `c1ccc(CCCNc2[nH]cnc3ncnc2-3)cc1` was 2.85; that for `Cc1coc2c1c(C)cc1oc(=O)cc(C)c12` was 3.28; that for `OCCCCCCCNc1ncnc2c1ncn2C1OC(CO)C(O)C1O` (centres undefined) was 0.68.
In the case of `COc1cc2ncnc(Nc3cccc(Cl)c3)c2cc1OC`, the lipophilicity (logP) is 3.51.
Regarding `c1ccc2c(c1)OCC(C1=NCCN1)O2` (centres undefined), the logP was found to be 1.63.
The value for `CNc1nccn2c(Cc3ccccc3F)nnc12` was 1.56; that for `CCSc1cccc2nc(N)nc(N)c12` was 2.27.
The same measure for `O=C1N=C(N2CCOCC2)CN1c1ccccc1`: 0.6.
The value for `OC(CNCCc1ccccc1)CON=C(C1CC1)C1CC1` (centres undefined) was 2.44; that for `CC1(C)CC(=O)C=C(N2CCCCC2)C1` was 2.83.
Turning to `O=c1[nH]c(=O)n(Cc2ccc(Cl)cc2Cl)cc1F`, the logP was 1.96.
The same measure for `CN1COCc2c1ccc1cc3ccc4c(c3nc21)COC(=O)N4`: 1.7.
`COCc1ccc(CC#N)cc1`: the logP is 1.23.
The same measure for `Nc1nnnn1-c1cccc(O)c1`: 0.56.
The same measure for `Cc1ccccc1Nc1ccncc1S(=O)(=O)NC(=O)NC1CCCCC1`: 4.35; for `Nc1ccno1`: -0.47; for `COC(=O)c1[nH]cc(-c2ccccc2C)c1N1CCOCC1`: 2.8.
The same measure for `Cc1c(C(=O)O)cccc1[N+](=O)[O-]`: 2.16; for `C=C(Br)CON=C(C)c1cccc(Oc2nc(OC)cc(OC)n2)c1C(=O)OC`: 3.73; for `CCNc1nc(O)nc(NC(C)(C)C)n1`: 3.53.
Molecule `CN(C/C=C/C#CC(C)(C)C)Cc1cccc2ccccc12` gave a lipophilicity (logP) of 6.
For `CCNC(=S)NN=C(c1cccc([N+](=O)[O-])c1)c1ccccn1`, the log partition coefficient (logP) was 2.53.
The same measure for `CC(C)(C)[N+]([O-])=Cc1ccc(O)cc1`: 0.6; for `O=C1CCCc2nnc(-c3ccccc3)cc21`: 2.05; for `NCCCOC1Cc2c(O)cc(O)cc2OC1c1ccc(O)c(O)c1` (centres undefined): 0.52.
With `CC(C)C(NC(=O)C(N)Cc1ccc(O)cc1)C(=O)NC(Cc1ccccc1)C(=O)O` (centres undefined), the logP is -1.37.
Regarding `CC(C)CC(NC(=O)C(N)Cc1c[nH]c2ccccc12)C(=O)O` (centres undefined), the log partition coefficient (logP) was -0.73.
The value for `CON=C(C(=O)NC1C(=O)N2C(C(C)OC(=O)OC(C)C)=CCSC12)c1csc(N)n1` (centres undefined) was 1.37; that for `CCCC(=NOCC)C1=C(O)CC2(CCC(C)CC2)OC1=O` (centres undefined) was 4.07.
`COC(=O)Cn1c(C)nc2ccccc2c1=O` showed a logP of 1.46.
In turn, `COc1ccc(Br)cc1CNC1CCCNC1c1ccccc1` (centres undefined) yielded a logP of 4.2.
The value for `CCC(C)C(NC(=O)C(N)Cc1ccc(O)cc1)C(=O)NC(CC(C)C)C(=O)NCC(=O)O` (centres undefined) (H-YILG-OH; configuration not given here) was -1.49; that for `CCOC(=O)CCCn1cnc([N+](=O)[O-])n1` was 0.42; that for `CC(=O)OCOC(=O)N(C)N=Nc1ccc(C)cc1` was 3.28.
The same measure for `CCCCCCCCCCCCCCc1ccccc1`: 9.95; for `CCC(CC)C(=O)NS(=O)(=O)c1ccc(C(F)(F)F)cc1[N+](=O)[O-]`: 3.57.
The same measure for `CCc1ccccc1CNc1[nH]cnc2ncnc1-2`: 2.92; for `O=C1C(O)N=C(c2ccccc2)c2cc([N+](=O)[O-])ccc2N1CCO` (centres undefined): 0.72; for `ClCC1(CCl)C2C(Cl)C(Cl)C1(CCl)C(Cl)(Cl)C2Cl` (centres undefined): 5.74.
Molecule `CCC(C)C(N)C(=O)NC(C(=O)NC(C(=O)NC(C(=O)NC(C(=O)O)C(C)CC)C(C)C)C(C)C)C(C)C` (centres undefined) (H-IVVVI-OH; configuration not given here) showed a logP of -0.89.
Turning to `COc1cc(S(C)=O)ccc1-c1cn2cc(N)cnc2n1` (centres undefined), the lipophilicity (logP) is 0.37.
As to `CCC(C)NC(=O)N1C(=O)N(C)CC1O` (centres undefined), the logP was 1.28.
The same measure for `CN1CC(O)N(C(=O)NC2CCCCCC2)C1=O` (centres undefined): 2.29; for `COc1ccccc1N1CCN(CCNCC(O)CON=C(C2CC2)C2CC2)CC1` (centres undefined): 3.21; for `c1nc2nc[nH]c(N3CCC3)c-2n1`: 0.87.
The value for `CCC(C)Nc1nc(N)nc(Cl)n1` (centres undefined) was 1.86; that for `NC(=O)Nc1cccc(O)c1` was 0.36; that for `O=C1N=C(N2CCCCC2)CN1c1ccc(Cl)cc1` was 2.3.
The same measure for `Cc1ccc(Cl)c(Cc2ccc(Cl)cc2Cl)c1`: 6.38; for `Cc1ccc(Cc2c[nH]cn2)c(C)c1`: 2.7; for `CC(=O)N(c1nc(=O)n(C(C)C)c(=O)n1C)C(C)C`: 0.18.
In the case of `CN1CCN(CCCOn2nnc3ccccc32)CC1`, the logP was found to be 1.3.
The value for `CN(C1=NC(=O)N(c2ccc(Cl)cc2)C1)C1CCCCC1` was 2.7.
Molecule `O=C(O)CCCON=C(c1ccccc1)c1ccncn1` registered a lipophilicity (logP) of 1.95.
The same measure for `CC(=O)OCc1ccccn1`: 0.39; for `CC(=O)OC(C)(C)C1CCC2(C)CCCC(=O)C2C1` (centres undefined): 3.2; for `Clc1c2ccccc2cc2ccccc12`: 5.27.
The same measure for `CC(=NNC(=O)c1ccc(N)cc1)c1cnccn1`: 1.3.
The same measure for `O=C(Cn1ncc([N+](=O)[O-])n1)NCCO`: -0.82; for `O=C1N=C(N2CCOCC2)CN1Cc1c(Cl)cccc1Cl`: 1.3; for `CCC(C)C(N)C(=O)NC(Cc1ccc(O)cc1)C(=O)NC(C(=O)NC(C(=O)O)C(C)C)C(C)CC` (centres undefined) (H-IYIV-OH; configuration not given here): -1.09.
Turning to `O=c1cc(-c2cccc(Cl)c2)oc2ccccc12`, the log partition coefficient (logP) was 3.91.
The value for `Clc1cc(Cl)c2c(c1)Oc1cc(Cl)c(Cl)c(Cl)c1O2` was 6.4.
`CCCCON=C(C)c1cccc(Oc2nc(OC)cc(OC)n2)c1C(=O)OC` came in with a logP of 4.11.
The same measure for `O=c1cc(CSc2nc3ccccc3s2)occ1O`: 2.08.

The record behind these values is the OPERA property sets (Mansouri et al. 2018).
